Source: patent publication US20090099218A1, “SYNTHESIS OF NOVEL TUBULIN POLYMERIZATION INHIBITORS: BENZOYLPHENYLUREA (BPU) SULFUR ANALOGS” (priority 2007, published 2009)
pIC50: −log10 of the molar value.

Assays:
Panc1 = experiment: MTT growth inhibition, pancreatic cell line Panc1; type: cell-based; settings: for pIC50: Homo sapiens, PANC-1, MTT assay, 96 h treatment, average of three independent experiments
Method: (§1) Eight of these analogs 6d, 6h, 6n, 6g, 7b, 7d, 8g, and 8h were tested for their cytotoxicity in seven pancreatic cell lines ASPC1, Panc1, Panc203, Panc430, Pane 1005, MiaPaca2, and HS766T using MTT assay. Cells were trypsinized, seeded at 5×10^3 cells/well in 96-well plate and allowed to grow for 24 hours before the treatment with exponential increasing concentrations of drugs in the presence of 10% FBS. After a 96-hours period of treatment, 20 μl of MTT solution (5 mg/ml in PBS) were added to each well, and the plates were then incubated for 3 hours at 37° C. Medium was then replaced with 100 μl of DMSO per well. Plates were shaken and the optical density was measured at 570 nm using a multiwell plate reader (Bio-Rad, Model 550, Bio-Rad Inc., Hercules, Calif.). Each experiment was performed in triplicate for each drug concentration and was carried out independently at least 3 times. The IC50 value was defined as the concentration needed for a 50% reduction in the absorbance calculated based on the survival curves. Response to drug treatment was assessed by standardizing treatment groups to untreated controls. Compounds activity was compared with compound 1.
(§2) Table 2 (Growth Inhibition of Pancreatic Cancer Cell Lines by BPU and BPTU Analogues (IC50) a) compares the cytotoxicity of a series of new derivatives against a panel of seven pancreatic cancer cell lines, as determined by MTT assay. See, Mosmann, T., J. Immunol. Methods 65:55-63 (1983).

[1] = tested on: prostate cancer cell lines CWR22R, LAPC-4 and LnCap; experiment: MTT growth inhibition, prostate cancer cell line panel; type: cell-based, human; settings: for potency relative to compound 1, prostate cell lines (preliminary screening): CWR22R, LAPC-4, LnCap
Method: This MTT assay was carried using human prostate cancer cell lines CWR22R, LAPC-4 and LnCap using Promega cell titer 96 nonradioactive cell proliferation kits. Cells were trypsinized and centrifuged at 1000 rpm for 5 minutes and the supernatant was aspirated. Cells were resuspended with HBSS to a concentration of 10^6/ml. Cell suspension was diluted in serum containing medium to plate 2000 cells/well/0.2 ml. Cell suspension was transferred to sterile solution basin. Cells were plated using multichannel pipette set at 200 μl and incubated overnight for attachment. One plate was prepared for day 0 MTT assay as follows: 100 μl of media was removed from each well using multichannel pipette and 15 μl of MTT reagent was added. Plates were incubated at 37° C. for 4 hrs. […] of STOP solution was added to each well and incubated at room temperature for 1 hour. Absorbance was measured at 570 and 650 nm on plate reader. All the media from the remaining plates were carefully removed and the cells were treated with the media containing drug. MTT assays were done on days 0, 3, 5 and 7. In the preliminary screening […] BPU sulfur analogs 6l, 6h, 6n, 7d and 8h were screened and their activity was compared with compound 1.

[2] = tested on: seven pancreatic cell lines; experiment: MTT cytotoxicity, panel of seven pancreatic cancer cell lines; type: cell-based; settings: seven pancreatic cell lines
Method: as §1, §2

[3] = In vivo dose-finding study; settings: for toxicity: 20 mg/kg and 30 mg/kg twice per week i.p., 4 weeks, six mice; for remaining animals that lost >15% of their weight: 50 mg/kg thrice per week i.p.; for mice that died in the 3rd week: mouse, in vivo
Method: Both compounds were explored by the i.p. route in cohorts of six mice each, with a duration of treatment of 4 weeks. […] Therefore, 50 mg/kg twice per week was explored. […] Therefore, the dose was escalated to 50 mg/kg thrice per week. In the 6n and 7d groups, respectively, two and one of the mice died in the 3rd week, and three of four and four of five of the remaining animals lost >15% of their weight. Thus, for 28-day efficacy studies following an i.p. route, we selected 50 mg/kg twice a week for both compounds.

MCF-7 cells = experiment: Apoptosis of MCF-7 cells; type: cell-based; settings: 48 hours
tubulin = experiment: Inhibition of [3H]colchicine binding; settings: Tubulin 1 μM; [3H]colchicine and inhibitor at 5 μM

## Nc1ccccc1C(=O)NC(=O)Nc1ccc(Sc2ncc(Br)cn2)cc1 [Compound 7d]
Panc1
  pIC50: 7.05
Panc1; Panc1
  increase in activity compared to 7c: 39 fold
[1]
  potency relative to compound 1, prostate cell lines (preliminary screening): 20 times
[2]
  potency relative to compound 1, pancreatic cell lines: 20 time
[3]
  toxicity: not associated with noticeable toxicity
  remaining animals that lost >15% of their weight: four of five
  mice that died in the 3rd week: one

## O=C(NC(=O)c1ccccc1[N+](=O)[O-])Nc1ccc(Sc2ncc(Br)cn2)cc1 [Compound 6n, 1-[4-(5-Bromopyrimidin-2-ylsulfanyl)phenyl]-3-(2-nitrobenzoyl)-urea]
MCF-7 cells; 10 nM
  rate of apoptosis: 29.7%
MCF-7 cells; 30 nM
  rate of apoptosis: 51.2%
MCF-7 cells; 100 nM
  rate of apoptosis: 53.6%
Panc1
  pIC50: 7.07
Panc1; Panc1
  increase in potency over 6m: 8 fold
[1]
  potency relative to compound 1, prostate cell lines (preliminary screening): 20 times
[1]; Homo sapiens, all prostate cell lines, read-out: IC50 against all prostate cell lines
  pIC50: 7.30
[2]
  potency relative to compound 1, pancreatic cell lines: 20 time
tubulin
  colchicine binding (% ± SD), inhibition of [3H]colchicine binding: 17 ± 3%
[3]
  toxicity: not associated with noticeable toxicity
  remaining animals that lost >15% of their weight: three of four
  mice that died in the 3rd week: two
[3]; 50 mg/kg twice per week i.p.
  mice with a weight loss of 15% by the 4th week: One of six
